Measurements reported in publication PMC9249726 (Clinical Pharmacokinetics, 2022).
Like-named read-outs stand apart in the source and are kept apart here.

Tests used:
[1] = cited from earlier work
[2] = test system: activated partial thromboplastin time (aPTT); test: Pharmacodynamic biomarker aPTT after single-dose milvexian 60 mg; assay type: in vivo, human; details: for Time at which mean aPTT returned to baseline: post-dose; for Maximal percentage increase from baseline in aPTT: single oral 60 mg
[3] = for increase in exposure, AUC(INF) / increase in exposure, Cmax: mild or moderate hepatic impairment compared with normal hepatic function
[4] = animal studies; no reference given; cited from earlier work
[5] = test system: cytochrome P450 (CYP)-3A4; details: in words; no reference given; cited from earlier work
Plasma protein binding = assay type: in vitro ADME, human; details: for fraction unbound: human, plasma, oral, 60 mg, geometric mean (geometric CV)
[6] = Safety and tolerability of single oral dose milvexian 60 mg; assay type: in vivo, human; details: single oral 60 mg, all groups, in words
[7] = milvexian 60 mg; ref previous studies; cited from earlier work

## COc1ccc(-n2nc(C(N)=O)c3c2C(=O)N(c2ccc(N4CCCCC4=O)cc2)CC3)cc1 [apixaban]
[1]; apixaban 5 mg
  AUC increase in participants with moderate hepatic impairment: 1.09 fold

## C[C@@H]1CCC[C@H](n2cnc(-c3cc(Cl)ccc3-n3cc(Cl)nn3)cc2=O)c2cc(ccn2)-c2c(cnn2C(F)F)NC1=O [milvexian]
[2]; mild hepatic impairment
  Time at which mean aPTT returned to baseline: ≤ 48 h
  Maximal percentage increase from baseline in aPTT: approximately 90%
[2]; moderate hepatic impairment
  Time at which mean aPTT returned to baseline: approximately 72 h
  Maximal percentage increase from baseline in aPTT: approximately 90%
[2]; normal hepatic function
  Time at which mean aPTT returned to baseline: ≤ 48 h
[2]; participants with hepatic impairment (mild or moderate), single dose 60 mg
  increase in aPTT: 90%
[3]; milvexian 60 mg, group with normal hepatic function
  variability in pharmacokinetics observed in this study: > 50%
[3]; total milvexian
  increase in exposure, AUC(INF): up to 18%
  increase in exposure, Cmax: up to 18%
[3]; unbound milvexian
  increase in exposure, AUC(INF): up to 30%
  increase in exposure, Cmax: up to 40%
[4]
  direct biliary excretion: ~ 30 % of the dose
  excretion through metabolism: 40–50 % of the administered dose
[5]
  metabolising enzymes: predominantly metabolized by cytochrome P450 (CYP)-3A4, with minor contributions from CYP3A5
Plasma protein binding; mild hepatic impairment (n = 9)
  fraction unbound: 0.0852
Plasma protein binding; moderate hepatic impairment (n = 8)
  fraction unbound: 0.0955
Plasma protein binding; normal hepatic function (n = 9)
  fraction unbound: 0.0775
Plasma protein binding; in words
  Plasma protein binding: moderate to high
Plasma protein binding; mild hepatic impairment
  geometric mean fraction of unbound milvexian: 8.52%
Plasma protein binding; moderate hepatic impairment
  geometric mean fraction of unbound milvexian: 9.55%
Plasma protein binding; normal hepatic function
  geometric mean fraction of unbound milvexian: 7.75%
[6]
  bleeding AEs: no bleeding AEs
  deaths, SAEs, discontinuations due to AEs: no serious adverse events (AEs), bleeding AEs, or discontinuations due to AEs
  drug-induced liver injury: no reports of drug-induced liver injury
[6]; listed as Milvexian
  deaths, SAEs, discontinuations due to AEs: no deaths, SAEs, or treatment discontinuations due to AEs
[7]
  expected variability in pharmacokinetics: ~ 20%

## O=C(NC[C@H]1CN(c2ccc(N3CCOCC3=O)cc2)C(=O)O1)c1ccc(Cl)s1 [rivaroxaban]
[1]; rivaroxaban 10 mg
  AUC increase in participants with moderate hepatic impairment: 2.27 fold
